# Measurements taken from paper PMC5369052, “Calcium regulation of the human mitochondrial ATP-Mg/Pi carrier SLC25A24 uses a locking pin mechanism” (Scientific Reports, 2017).
# T1: ∆1-191 APC1 (∆1-191_APC1) (Homo sapiens, UniProt Q6NUK1)
# T1 construct: gene SLC25A24; carrier domain only, N-terminal truncation; His8-Factor Xa tag cut, primer adds TSED after IEGR; in liposomes
# T1 sequence (Q6NUK1 191-477): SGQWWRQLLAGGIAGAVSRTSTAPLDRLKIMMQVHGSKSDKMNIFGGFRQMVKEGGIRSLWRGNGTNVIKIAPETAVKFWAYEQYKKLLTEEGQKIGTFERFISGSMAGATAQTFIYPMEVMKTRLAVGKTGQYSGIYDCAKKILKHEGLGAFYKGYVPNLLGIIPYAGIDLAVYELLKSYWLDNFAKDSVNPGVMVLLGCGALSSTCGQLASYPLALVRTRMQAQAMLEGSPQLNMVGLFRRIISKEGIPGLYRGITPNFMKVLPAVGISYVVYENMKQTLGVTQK
# B1: full-length human mitochondrial ATP-Mg/Pi carrier isoform 1 (APC1; SCaMC1/SLC25A24) (Homo sapiens) (protein)
# chain: MLRWLRDFVLPTAACQDAEQPTRYETLFQALDRNGDGVVDIGELQEGLRNLGIPLGQDAEEKIFTTGDVNKDGKLDFEEFMKYLKDHEKKMKLAFKSLDKNNDGKIEASEIVQSLQTLGLTISEQQAELILQSIDVDGTMTVDWNEWRDYFLFNPVTDIEEIIRFWKHSTGIDIGDSLTIPDEFTEDEKKSGQWWRQLLAGGIAGAVSRTSTAPLDRLKIMMQVHGSKSDKMNIFGGFRQMVKEGGIRSLWRGNGTNVIKIAPETAVKFWAYEQYKKLLTEEGQKIGTFERFISGSMAGATAQTFIYPMEVMKTRLAVGKTGQYSGIYDCAKKILKHEGLGAFYKGYVPNLLGIIPYAGIDLAVYELLKSYWLDNFAKDSVNPGVMVLLGCGALSSTCGQLASYPLALVRTRMQAQAMLEGSPQLNMVGLFRRIISKEGIPGLYRGITPNFMKVLPAVGISYVVYENMKQTLGVTQK
# notes: full length, N-terminal His8 tag + Factor Xa site (IEGR), tag cut by factor Xa; codon-optimised, expressed in S. cerevisiae mitochondria; purified in LMNG, reconstituted in PC/cardiolipin liposomes
# What was measured:
# [1] = target: T1, ∆1-191 APC1 (∆1-191_APC1); assay: counter-exchange of internal ADP with external […]-ATP in proteoliposomes; assay type: biochemical; conditions: 2.5 mM internal ADP; 5 mM MgCl2 outside; pH 7.4, 20 °C
# [2] = target: T1, ∆1-191 APC1 (∆1-191_APC1); assay: […]-ATP uptake into proteoliposomes, initial rates; assay type: biochemical; conditions: 1.5 μM external ATP exchanged for 2.5 mM internal ADP; 5 mM MgCl2 outside; pH 7.4, 20 °C; labelled compound
# [3] = substrate: Nc1ncnc2c1ncn2[C@@H]1O[C@H](COP(=O)(O)OP(=O)(O)OP(=O)(O)O)[C@@H](O)[C@H]1O; assay: purified protein; assay type: biochemical, Homo sapiens; conditions: 4 mM total external CaCl2 (calcium-activated state), 2.5 mM internal ATP, 20 mM Tris-HCl pH 7.4, 20 °C, labelled compound
molecule,measurement,setting,value
Nc1ncnc2c1ncn2[C@@H]1O[C@H](COP(=O)(O)OP(=O)(O)O)[C@@H](O)[C@H]1O [ADP],counter-exchange of internal ADP with external [14C]-ATP in proteoliposomes,[1],hetero-exchange between ATP and ADP was monitored over a 15-minute time course
Nc1ncnc2c1ncn2[C@@H]1O[C@H](COP(=O)(O)OP(=O)(O)OP(=O)(O)O)[C@@H](O)[C@H]1O [ATP],"[14C]-ATP uptake into proteoliposomes, initial rates",[2],uptake rate of ATP was highest in the presence of externally added magnesium
B1,Km,[3],29 ± 8 µM
